Measured values from US7705020B2, “Benzimidazolone carboxylic acid derivatives” (Pfizer Inc., priority 2004, dated 2010).

SMILES: CC(C)n1c(=O)n(C(=O)NCC2CCN(CC3(C(=O)O)CCOCC3)CC2)c2ccccc21 [Example 1, 4-{[4-({[(3-isopropyl-2-oxo-2,3-dihydro-1H-benzimidazol-1-yl)carbonyl]amino}methyl)piperidin-1-yl]methyl}tetrahydro-2H-pyran-4-carboxylic acid]
- melting point: 223 °C
